Measurements published in patent US20230219962A1, “PYRAZOLO[4,3-d]PYRIMIDINE DERIVATIVES AND METHODS OF USE THEREOF FOR THE TREATMENT OF CELLULAR PROLIFERATIVE DISORDERS” (Merck Sharp & Dohme LLC, priority 2020, published 2023).

Experiments:
[1] = target: T1, hTLR7 (Homo sapiens, UniProt Q9NYK1); test: Human TLR7 Reporter Assay; type: cell-based; conditions: HEK-Blue hTLR7 cells, 16 hours, normalized to CL097 (6 μM) and DMSO
T1 construct: host or cells: HEK-Blue hTLR7 cells (HEK293-derived, own knowledge)
T1 sequence (Q9NYK1 27-1049): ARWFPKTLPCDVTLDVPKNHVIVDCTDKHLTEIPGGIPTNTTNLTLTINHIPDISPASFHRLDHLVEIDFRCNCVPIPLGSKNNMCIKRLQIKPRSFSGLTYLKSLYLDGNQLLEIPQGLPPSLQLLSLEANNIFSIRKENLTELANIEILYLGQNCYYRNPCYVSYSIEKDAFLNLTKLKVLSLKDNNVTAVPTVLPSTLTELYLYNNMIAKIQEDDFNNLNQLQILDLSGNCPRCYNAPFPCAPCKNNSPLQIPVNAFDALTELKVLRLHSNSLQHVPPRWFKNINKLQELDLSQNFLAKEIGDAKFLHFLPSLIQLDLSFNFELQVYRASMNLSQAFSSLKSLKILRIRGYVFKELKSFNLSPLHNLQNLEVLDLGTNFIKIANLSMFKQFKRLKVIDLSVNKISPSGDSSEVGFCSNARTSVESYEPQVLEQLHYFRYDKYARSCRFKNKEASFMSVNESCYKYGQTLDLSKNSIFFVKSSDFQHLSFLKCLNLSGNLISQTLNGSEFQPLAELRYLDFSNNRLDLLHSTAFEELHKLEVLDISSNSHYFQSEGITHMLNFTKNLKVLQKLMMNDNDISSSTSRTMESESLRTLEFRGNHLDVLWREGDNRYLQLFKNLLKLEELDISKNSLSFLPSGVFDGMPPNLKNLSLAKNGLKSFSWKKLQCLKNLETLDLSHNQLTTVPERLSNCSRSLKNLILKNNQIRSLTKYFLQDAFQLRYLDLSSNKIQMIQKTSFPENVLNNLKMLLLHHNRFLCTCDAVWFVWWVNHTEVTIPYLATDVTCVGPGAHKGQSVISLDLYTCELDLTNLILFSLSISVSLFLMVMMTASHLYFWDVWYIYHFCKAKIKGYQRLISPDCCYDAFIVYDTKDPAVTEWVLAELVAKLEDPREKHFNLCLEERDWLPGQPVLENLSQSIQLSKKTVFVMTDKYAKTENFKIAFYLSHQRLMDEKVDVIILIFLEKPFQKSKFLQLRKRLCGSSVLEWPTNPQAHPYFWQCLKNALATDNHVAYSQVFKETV
Description: (§1) HEK-Blue™ hTLR7 cells (Invivogen, San Diego, Calif.) were maintained at 37° C./5% CO2/90% relative humidity in Dulbecco's Modified Eagle's Medium with 10% fetal bovine serum, 100 units/mL penicillin, 100 μg/mL streptomycin, 100 μg/mL normocin, 10 μg/mL blasticidin, and 100 μg/mL zeocin. HEK-Blue™ hTLR7 cells were maintained at 10-90% confluence and used before passage 20. For this assay, test compounds were dissolved in DMSO, and 10-point serial 3-fold dilution series in DMSO were prepared in Echo Qualified 384-well Polypropylene Microplates (Labcyte, San Jose, Calif.). Assay plates (384-well flat, clear bottom, black polystyrene TC-treated microtiter plates; Corning, Corning, N.Y.) were prepared by dispensing 150 nL of test compounds, high control (CL097; Invivogen, San Diego, Calif.), and low control (DMSO) by ECHO acoustic dispenser (Labcyte, San Jose Calif.) followed by addition of 5 μL of HEK-Blue™ Detection assay media (Invivogen, San Diego, Calif.). HEK-Blue™ hTLR7 cells in HEK-Blue™ Detection assay media (20,000 cells per well in 45 μL of media) were added to the assay plate and incubated for 16 hours at 37° C./5% CO2/90% relative humidity. For detection, assay plates were removed from the incubator, allowed to cool to ambient temperature, centrifuged at 200×g for 1 minutes, and read with an EnSpire Multimode Plate Reader (Perkin Elmer, Waltham, Mass.) for absorbance at 620 nm. Test compound effects were normalized to the window defined by the controls, CL097 (6 μM), and DMSO. Calculated % effects were fit using a 4-parameter algorithm, and EC50 was reported.

[2] = target: T2, hTLR8 (Homo sapiens, UniProt Q9NR97); test: Human TLR8 Reporter Assay; type: cell-based; conditions: HEK-Blue hTLR8 cells, 16 hours, normalized to tl8-506 (1 μM) and DMSO
T2 construct: host or cells: HEK-Blue hTLR8 cells (HEK293-derived, own knowledge)
T2 sequence (Q9NR97 27-1041): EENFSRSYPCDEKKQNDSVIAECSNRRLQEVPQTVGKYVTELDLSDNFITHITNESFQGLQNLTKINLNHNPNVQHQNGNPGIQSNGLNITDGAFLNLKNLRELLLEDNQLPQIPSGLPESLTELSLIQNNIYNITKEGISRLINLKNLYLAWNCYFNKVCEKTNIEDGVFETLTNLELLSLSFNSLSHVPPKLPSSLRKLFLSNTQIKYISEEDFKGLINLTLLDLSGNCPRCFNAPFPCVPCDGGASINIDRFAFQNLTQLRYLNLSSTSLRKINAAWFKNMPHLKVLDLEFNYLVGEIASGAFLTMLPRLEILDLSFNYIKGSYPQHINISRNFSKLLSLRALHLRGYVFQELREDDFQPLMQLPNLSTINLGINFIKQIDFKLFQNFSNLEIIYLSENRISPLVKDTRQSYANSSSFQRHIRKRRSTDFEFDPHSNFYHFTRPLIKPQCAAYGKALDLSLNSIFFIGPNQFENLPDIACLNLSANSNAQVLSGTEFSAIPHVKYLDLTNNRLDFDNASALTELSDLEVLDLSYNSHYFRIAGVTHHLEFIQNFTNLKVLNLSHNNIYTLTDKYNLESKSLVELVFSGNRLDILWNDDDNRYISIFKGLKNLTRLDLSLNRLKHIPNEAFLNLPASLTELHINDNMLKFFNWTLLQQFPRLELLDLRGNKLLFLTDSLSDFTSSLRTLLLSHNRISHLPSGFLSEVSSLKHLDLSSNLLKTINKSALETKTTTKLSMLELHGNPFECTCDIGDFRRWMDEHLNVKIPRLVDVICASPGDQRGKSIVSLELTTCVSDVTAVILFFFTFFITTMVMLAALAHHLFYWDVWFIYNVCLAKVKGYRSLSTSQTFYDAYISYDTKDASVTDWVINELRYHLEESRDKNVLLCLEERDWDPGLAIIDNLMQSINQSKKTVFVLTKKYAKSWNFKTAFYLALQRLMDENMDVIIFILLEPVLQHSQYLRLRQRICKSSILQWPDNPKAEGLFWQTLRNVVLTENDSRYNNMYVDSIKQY
Description: as §1, with “hTLR8” for “hTLR7”, “(tl8-506;” for “(CL097;”, “tl8-506 (1” for “CL097 (6”

Row | EC50 [1] [nM] | EC50 [2] [nM] | SMILES
1 | 252 | 1720 | CCCCNc1nc(N)nc2cn(Cc3nocc3C)nc12 [Compound 140]
2 | 154 | 2600 | CCCCNc1nc(N)nc2cn(Cc3ccc(C4CCCN4)cc3OC)nc12 (stereo not drawn) [Compound 239]
3 | 1490 | 9820 | CCCCNc1nc(N)nc2cn(Cc3ccc(C4CNCCN4)cc3OC)nc12 (stereo not drawn) [Compound 234]
4 | 288 | 1400 | CCCCNc1nc(N)nc2cn(Cc3ncccn3)nc12 [Compound 122]
5 | 3040 | 719 | CCCCNc1nc(N)nc2cn(Cc3c(OC)ccc(CN)c3OC)nc12 [Compound 76]
6 | 118 | 170 | CCCCNc1nc(N)nc2cn(Cc3ccc(C(C)N(C)C)cc3OC)nc12 (stereo not drawn) [Compound 220]
7 | 539 | 3260 | CCCCNc1nc(N)nc2cn(Cc3ccc(C4CCC(=O)N4)cc3)nc12 (stereo not drawn) [Compound 201]
8 | 363 | 78.1 | CCCNC(C)c1ccc(Cn2cc3nc(N)nc(N[C@H](CO)CCC)c3n2)c(OC)c1 (stereo partly drawn) [Compound 232]
9 | 3040 | 26100 | CCCCNc1nc(N)nc2cn(CCCCCCCCN)nc12 [Compound 13]
10 | 858 | 3930 | CCNc1nc(N)nc2cn(Cc3c(OC)cccc3OC)nc12 [Compound 44]
11 | 6280 | 1070 | CCC[C@@H](CO)Nc1nc(N)nc2cn(Cc3c(OC)cc(C(C)N)cc3OC)nc12 (stereo partly drawn) [Compound 222]
12 | 1030 | > 9980 | CCCCNc1nc(N)nc2cn(Cc3ccccc3OC(C)C)nc12 [Compound 37]
13 | 806 | 2340 | CCCCNc1nc(N)nc2cn(Cc3c(OC)cccc3OCCCCC(=O)OC)nc12 [Compound 207]
14 | 170 | 3810 | CCCCNc1nc(N)nc2cn(Cc3ccc(NCCCN)cn3)nc12 [Compound 144]
15 | 1740 | 18700 | CCCCNc1nc(N)nc2cn(Cc3ccc(N4CC5(CN(CCN6C(=O)C=CC6=O)C5)C4)cc3OC)nc12 [Compound 125]
16 | 858 | > 29900 | COc1cccc(OC)c1Cn1cc2nc(N)nc(NCCC(C)C)c2n1 [Compound 53]

Row | EC50 [1] [nM] | EC50 [2] [nM] | SMILES
17 | 8590 | > 29900 | COc1cccc(OC)c1Cn1cc2nc(N)nc(NCCCO)c2n1 [Compound 47]
18 | > 29900 | – | CCCCNc1nc(N)nc2cn(Cc3c(OC)ccc(CNC(=O)C4CCC(CN5C(=O)C=CC5=O)CC4)c3OC)nc12 (stereo not drawn) [Compound 81]
19 | 30.8 | 380 | C=CCN(C)Cc1cc(OC)c(Cn2cc3nc(N)nc(N[C@@H](C)CCC)c3n2)c(OC)c1 [Compound 183]
20 | 370 | 734 | CCC[C@@H](CO)Nc1nc(N)nc2cn(Cc3ccccc3OC)nc12 [Compound 130]
21 | 409 | 413 | CCCCNc1nc(N)nc2cn(Cc3c(OC)cc(CN(C)CCCN)cc3OC)nc12 [Compound 141]
22 | 5180 | 1180 | CCC[C@@H](CO)Nc1nc(N)nc2cn(Cc3ccc(CN4CC(CN)C4)cc3OC)nc12 [Compound 149]
23 | 396 | 835 | CCCCNc1nc(N)nc2cn(Cc3ccc(C4CCNC4)cc3)nc12 (stereo not drawn) [Compound 198]
24 | 55.9 | 370 | C=CCN(C)Cc1cnc(Cn2cc3nc(N)nc(NCCCC)c3n2)c(OC)c1 [Compound 157]
25 | 86.2 | > 9980 | CCCCC(CCO)Nc1nc(N)nc2cn(Cc3ccccc3OC)nc12 (stereo not drawn) [Compound 16]
26 | 354 | 3470 | CCCCNc1nc(N)nc2cn(Cc3ccc(C4CCNC4=O)cc3)nc12 (stereo not drawn) [Compound 202]
27 | 2650 | 2560 | CCCCNc1nc(N)nc2cn(Cc3c(OC)ccc(CN4CCNCC4)c3OC)nc12 [Compound 78]
28 | 7720 | > 29900 | COc1cccc(OC)c1Cn1cc2nc(N)nc(NCC(C)O)c2n1 (stereo not drawn) [Compound 48]
29 | 360 | > 3330 | CCCCNc1nc(N)nc2cn(Cc3cc(OC)c(CN(C)CCCN4C(=O)C=CC4=O)cc3OC)nc12 [Compound 143]
30 | 20 | 63.3 | C=CCN(C)Cc1cc(OC)c(Cn2cc3nc(N)nc(N[C@H](C)CCC)c3n2)c(OC)c1 [Compound 187]
31 | 95.2 | 633 | CCCCNc1nc(N)nc2cn(Cc3ccc(CCO)cc3OC)nc12 [Compound 128]
32 | 241 | 2870 | CCCCNc1nc(N)nc2cn(Cc3ccc(C4CCCN4)cc3OC)nc12 (stereo not drawn) [Compound 236]
